According to patent US11371055B2, “Herbicide resistance genes” (CORTEVA AGRISCIENCE LLC, priority 2005, dated 2022):

Key:
[1] = tested on: PAT/Cry1F-transformed Arabidopsis (auxin-sensitive transformed control); experiment: T1 Arabidopsis postemergence herbicide dose response, transformed control; assay type: in vivo, Arabidopsis thaliana
Method: Seven days after planting (DAP) and again 11 DAP, T1 plants (cotyledon and 2-4-lf stage, respectively) were sprayed with a 0.2% solution of Liberty herbicide (200 g ai/L glufosinate, Bayer Crop Sciences, Kansas City, Mo.) at a spray volume of 10 ml/tray (703 L/ha) using a DeVilbiss compressed air spray tip to deliver an effective rate of 280 g ai/ha glufosinate per application. Survivors (plants actively growing) were identified 4-7 days after the final spraying and transplanted individually into 3-inch pots prepared with potting media (Metro Mix 360). Transplanted plants were covered with humidity domes for 3-4 days and placed in a 22° C. growth chamber as before or moved to directly to the greenhouse. Domes were subsequently removed and plants reared in the greenhouse (22±5° C., 50±30% RH, 14 h light:10 dark, minimum 500 μE/m^2 s^1 natural+supplemental light) at least 1 day prior to testing for the ability of AAD-12 (v1) (plant optimized gene) to provide phenoxy auxin herbicide resistance.
T1 plants were then randomly assigned to various rates of 2,4-D. For Arabidopsis, 50 g ae/ha 2,4-D is an effective dose to distinguish sensitive plants from ones with meaningful levels of resistance. Elevated rates were also applied to determine relative levels of resistance (50, 200, 800, or 3200 g ac/ha). Tables 10 and 11 show comparisons drawn to an aryloxyalkanoate herbicide resistance gene (AAD-1 (v3)) previously described in PCT/US2005/014737.
All auxin herbicide applications were made using the DeVilbiss sprayer as described above to apply 703 L/ha spray volume (0.4 ml solution/3-inch pot) or applied by track sprayer in a 187 L/ha spray volume. 2,4-D used was either technical grade (Sigma, St. Louis, Mo.) dissolved in DMSO and diluted in water (<1% DMSO final concentration) or the commercial dimethylamine salt formulation (456 g ac/L, NuFarm, St Joseph, Mo.). Dichlorprop used was commercial grade formulated as potassium salt of R-dichlorprop (600 g ai/L, AH Marks). As herbicide rates increased beyond 800 g ae/ha, the pH of the spray solution became exceedingly acidic, burning the leaves of young, tender Arabidopsis plants and complicating evaluation of the primary effects of the herbicides. It became standard practice to apply these high rates of herbicides in 200 mM HEPES buffer, pH 7.5.
The first Arabidopsis transformations were conducted using AAD-12 (v1) (plant optimized gene). T1 transformants were first selected from the background of untransformed seed using a glufosinate selection scheme. Over 300,000 T1 seed were screened and 316 glufosinate resistant plants were identified (PAT gene), equating to a transformation/selection frequency of 0.10% which lies in the normal range of selection frequency of constructs where PAT+Liberty are used for selection. T1 plants selected above were subsequently transplanted to individual pots and sprayed with various rates of commercial aryloxyalkanoate herbicides. Table 11 compares the response of AAD-12 (v1) and control genes to impart 2,4-D resistance to Arabidopsis T1 transformants. Response is presented in terms of % visual injury 2 WAT. […] Since each T1 is an independent transformation event, one can expect significant variation of individual T1 responses within a given rate. An arithmetic mean and standard deviation is presented for each treatment. The range in individual response is also indicated in the last column for each rate and transformation. PAT/Cry1F-transformed Arabidopsis served as an auxin-sensitive transformed control. The AAD-12 (v1) gene imparted herbicide resistance to individual T1 Arabidopsis plants. Within a given treatment, the level of plant response varied greatly and can be attributed to the fact each plant represents an independent transformation event. Of important note, at each 2,4-D rate tested, there were individuals that were unaffected while some were severely affected. […]

[2] = tested on: AAD-12 (v1) event pDAB4101[20] T1 rice; experiment: Field tolerance of rice, AAD-12 event; assay type: in vivo, Oryza sativa; details: for visual injury: 7 or 15DAT; for % Visual injury 7DAT / % Visual injury 15DAT: AAD-12 event pDAB4101[20]
Method: (§1) A field level tolerance trial was conducted with AAD-12 (v1) event pDAB4101[20] and one wild-type rice (Clearfield 131) at Wayside, Miss. (a non-transgenic imidazolinone-resistant variety). The experimental design was a randomized complete block design with a single replication. […] Within each herbicide treatment, two rows of T1 generation pDAB4101[20] and two rows of Clearfield rice were planted using a small plot drill with 8-inch row spacing. The pDAB4101[20] rice contained the AHAS gene as a selectable marker for the AAD-12(v1) gene. Imazethapyr was applied at the one leaf stage as selection agent to remove any AAD-12 (v1) null plants from the plots. Herbicide treatments were applied when the rice reached the 2 leaf stage using compressed air backpack sprayer delivering 187 L/ha carrier volume at 130-200 kpa pressure. […]

[3] = tested on: wild-type rice (Clearfield 131); experiment: Field tolerance of rice, wild-type; assay type: in vivo, Oryza sativa; details: for % Visual injury 7DAT / % Visual injury 15DAT: Wild-type Clearfield
Method: as §1

[4] = tested on: cotton cotyledonary segments; assay type: cell-based
Method: A dose response study was initiated to test multiple auxin alternatives as a substitute for the use of 2,4-D as a growth regulator in cotton. The alternative auxin tested were 2,4-dichlorprop, dicamba, and picloram. These compounds were tested at 0.2, 2.0, and 20.0 uM concentrations respectively. 2,4-D was used as the control treatment at 0.02 uM concentration. The medium used is the base medium for cotton callus induction (Example 12). Beyond the initial phase of culture, auxin is removed from the medium to prod the tissue toward the regeneration process.

[5] = 50 g ae/ha 2,4-D postemergence, 2 WAT
[6] = 200 g ae/ha 2,4-D postemergence, 2 WAT
[7] = 800 g ae/ha 2,4-D postemergence, 2 WAT
[8] = 3200 g ae/ha 2,4-D postemergence, 2 WAT
[9] = 50 g ae/ha R-dichlorprop postemergence
[10] = 200 g ae/ha R-dichlorprop postemergence
[11] = 800 g ae/ha R-dichlorprop postemergence
[12] = 3200 g ae/ha R-dichlorprop postemergence

SMILES: O=C(O)COc1ccc(Cl)cc1Cl [2,4-D, 2,4-dichlorophenoxyacetic acid]
- % Injury 20-40% (number of individuals) [1, 5]: 1
- % Injury <20% (number of individuals) [1, 5]: 4
- % Injury >40% (number of individuals) [1, 5]: 5
- % Injury Ave [1, 5]: 31%
- % Injury 20-40% (number of individuals) [1, 6]: 0
- % Injury <20% (number of individuals) [1, 6]: 0
- % Injury >40% (number of individuals) [1, 6]: 10
- % Injury Ave [1, 6]: 70%
- % Injury 20-40% (number of individuals) [1, 7]: 0
- % Injury <20% (number of individuals) [1, 7]: 0
- % Injury >40% (number of individuals) [1, 7]: 10
- % Injury Ave [1, 7]: 81%
- % Injury 20-40% (number of individuals) [1, 8]: 0
- % Injury <20% (number of individuals) [1, 8]: 0
- % Injury >40% (number of individuals) [1, 8]: 10
- % Injury Ave [1, 8]: 91%
- visual injury ([2]; 2,4-D at 2240 g ae/ha): no injury
- % Visual injury 7DAT ([2]; 2240 GM AE/HA): 0%
- % Visual injury 15DAT ([2]; 2240 GM AE/HA): 0%
- visual injury ([3]; 2,4-D at 2240 g ae/ha, 7DAT): 30%
- visual injury ([3]; 2,4-D at 2240 g ae/ha, 15DAT): 35%
- % Visual injury 7DAT ([3]; 2240 GM AE/HA): 15%
- % Visual injury 15DAT ([3]; 2240 GM AE/HA): 35%
- effect on cotton callus generation and growth ([4]; highest concentration (20 uM)): inhibitory

SMILES: C[C@@H](Oc1ccc(Cl)cc1Cl)C(=O)O [(R)-dichlorprop, R-2,4-dichlorophenoxypropionic acid]
- % Injury 20-40% (number of individuals) [1, 9]: 10
- % Injury <20% (number of individuals) [1, 9]: 0
- % Injury >40% (number of individuals) [1, 9]: 0
- % Injury Ave [1, 9]: 27%
- % Injury 20-40% (number of individuals) [1, 10]: 0
- % Injury <20% (number of individuals) [1, 10]: 0
- % Injury >40% (number of individuals) [1, 10]: 10
- % Injury Ave [1, 10]: 69%
- % Injury 20-40% (number of individuals) [1, 11]: 0
- % Injury <20% (number of individuals) [1, 11]: 0
- % Injury >40% (number of individuals) [1, 11]: 10
- % Injury Ave [1, 11]: 83%
- % Injury 20-40% (number of individuals) [1, 12]: 0
- % Injury <20% (number of individuals) [1, 12]: 0
- % Injury >40% (number of individuals) [1, 12]: 10
- % Injury Ave [1, 12]: 90%
- callus induction of cotyledonary segments ([4]; concentrations tested up to 20 uM): not effective

SMILES: O=C(O)COc1nc(Cl)c(Cl)cc1Cl [triclopyr]
- visual injury ([2]; 2× rate of triclopyr (560 g ae/ha)): no injury
- % Visual injury 7DAT ([2]; 840 GM AE/HA): 0%
- % Visual injury 15DAT ([2]; 840 GM AE/HA): 0%
- visual injury ([3]; 2× rate of triclopyr (560 g ae/ha), 7DAT): 15%
- visual injury ([3]; 2× rate of triclopyr (560 g ae/ha), 15DAT): 25%
- % Visual injury 7DAT ([3]; 840 GM AE/HA): 30%
- % Visual injury 15DAT ([3]; 840 GM AE/HA): 25%
